# Active and inactive are the calls of the source. The calls are words filed in the database; no cut-off is given here.
# Legend:
# [1] = Cell cycle arrest in human T24 cells assessed as accumulation at G2 phase at 5 uM after 48 hrs by propidium iodide staining-based FACS analysis (reference value: 18.5%); type: functional; details: T-24
# [2] = Binding affinity to 5' FAM/3' TAMRA labeled HRAS2 G-quadruplex DNA (unknown origin) assessed as change in melting temperature by FRET analysis
# [3] = system: T-24; test: Induction of apoptosis in human T24 cells assessed as activation of caspase 3/7 at 2.5 to 5 uM measured after 18 to 24 hrs by Apo-ONE assay relative to control; type: functional
# [4] = Binding affinity to 5' FAM/3' TAMRA labeled HRAS1 G-quadruplex DNA (unknown origin) by FRET analysis
# [5] = system: T-24; test: Inhibition of HRAS mRNA expression in human T24 cells assessed as remaining mRNA level at 5 uM after 24 hrs by RT-qPCR analysis relative to beta2-microglobulin mRNA expression; type: functional
# [6] = system: T-24; test: Induction of apoptosis in human T24 cells assessed as PARP-1 cleavage at 2.5 uM measured at 48 hrs by Western blot analysis relative to control; type: functional
# [7] = Binding affinity to 5' FAM/3' TAMRA labeled HRAS1 G-quadruplex DNA (unknown origin) assessed as change in melting temperature by FRET analysis
# [8] = Binding affinity to 5' FAM/3' TAMRA labeled HRAS2 G-quadruplex DNA (unknown origin) assessed as change in melting temperature at 5 equiv of compound (r = 5) by FRET analysis (reference value: 68.1 degreeC)
# [9] = system: T-24; test: Induction of reactive oxygen species generation in human T24 cells at 1 to 5 uM after 24 hrs relative to control; type: functional, cell-based
# [10] = Downregulation of p21RAS protein level in human T24 cells assessed as remaining protein level at 5 uM after 48 hrs by Western blot analysis relative to beta-actin protein expression; type: functional, cell-based; details: T-24
# [11] = system: T-24; test: Inhibition of HRAS mRNA expression in human T24 cells assessed as remaining mRNA level at 5 uM after 6 hrs by RT-qPCR analysis relative to beta2-microglobulin mRNA expression; type: functional
# [12] = Cellular uptake in human T24 cells at 5 uM at 4 degC after 4 hrs by FACS analysis; type: ADME, cell-based; details: t-24, 4 h
# [13] = system: HEK293; test: Cytotoxicity against HEK293 cells harboring wild type HRAS assessed as reduction of metabolic activity after 72 hrs by resazurin assay; type: cell-based; details: Homo sapiens, HEK293, 72 h
# [14] = Cellular uptake in nucleus of human T24 cells at 5 uM after 4 hrs by confocal microscopic analysis; type: ADME, cell-based; details: t-24, 4 h
# [15] = Cellular uptake in human T24 cells at 1 to 5 uM after 4 hrs by FACS analysis; type: ADME, cell-based; details: t-24, 4 h
# [16] = Cellular uptake in human T24 cells at 5 uM after 4 hrs by FACS analysis in presence of dynasore; type: ADME, cell-based; details: t-24, 4 h
# [17] = Cellular uptake in human T24 cells at 5 uM after 4 hrs by FACS analysis relative to HEK293 cells; type: ADME, cell-based; details: hek293, 4 h
# [18] = Cell cycle arrest in human T24 cells assessed as accumulation at G1 phase at 5 uM after 48 hrs by propidium iodide staining-based FACS analysis (reference value: 52.4%); type: functional; details: T-24
# [19] = Cytotoxicity against human T24 cells harboring HRAS mutant assessed as reduction of metabolic activity after 72 hrs by resazurin assay; type: functional, cell-based; details: T-24, 72 h
# [20] = Downregulation of cyclin D1 level in human T24 cells assessed as remaining protein level at 2.5 uM after 48 hrs by Western blot analysis; type: functional, cell-based; details: T-24
# [21] = Cellular uptake in cytoplasm of human T24 cells at 5 uM after 4 hrs by confocal microscopic analysis; type: ADME, cell-based; details: t-24, 4 h
# [22] = system: T-24; test: Induction of apoptosis in human T24 cells at 2.5 uM after 24 hrs by annexin V-FITC/propidium iodide staining-based FACS analysis (13 +/- 5%); type: functional
# [23] = Cell cycle arrest in human T24 cells assessed as accumulation at G2 phase at 5 uM measured at 72 hrs by propidium iodide staining-based FACS analysis (reference value: 17.7%); type: functional; details: T-24
# [24] = system: T-24; test: Cytotoxicity against human T24 cells assessed as reduction of colony formation at 1 uM after 7 days by methylene blue staining-based assay; type: functional, cell-based
# [25] = Cellular uptake in human T24 cells at 5 uM at 37 degC after 4 hrs by FACS analysis; type: ADME, cell-based; details: t-24, 4 h
# [26] = Binding affinity to 5' FAM/3' TAMRA labeled HRAS2 G-quadruplex DNA (unknown origin) by FRET analysis
# [27] = Binding affinity to 5' FAM/3' TAMRA labeled HRAS2 G-quadruplex DNA (unknown origin) assessed as change in melting temperature at 5 equiv of compound by FRET analysis in presence of 10 fold excess duplex DNA (reference value: 68.1 degreeC)
# [28] = system: T-24; test: Inhibition of HRAS mRNA expression in human T24 cells at 5 uM after 6 to 24 hrs by RT-qPCR analysis; type: functional, cell-based
# [29] = Cell cycle arrest in human T24 cells assessed as accumulation at G2 phase at 5 uM after 48 to 72 hrs by propidium iodide staining-based FACS analysis; type: functional; details: T-24
# [30] = Downregulation of p21RAS protein level in human T24 cells at 5 uM after 48 hrs by Western blot analysis; type: functional, cell-based; details: T-24
# [31] = Antitumor activity against human T24 cells xenografted in nude mouse assessed as mouse median survival day at 1.7 mg/kg administered intratumorally on day 1, 8, 15, 22 (reference value: 32 days); type: functional, T-24
# [32] = system: T-24; test: Binding affinity to mutant HRAS Mut-B plasmid (unknown origin) transfected in human T24 cells at 100 to 200 nM pretreated with cells followed by transfection measured after 48 hrs by dual luciferase reporter gene assay; type: cell-based
# [33] = Downregulation of p21RAS protein level in human T24 cells assessed as remaining protein level at 2.5 to 5 uM after 48 hrs by Western blot analysis relative to beta-actin protein expression; type: functional, cell-based; details: T-24
# [34] = system: T-24; test: Antitumor activity against human T24 cells xenografted in nude mouse assessed as tumor growth inhibition at 1.7 mg/kg administered intratumorally on day 1, 8, 15, 22 measured every 2 to 3 days up to 44 days; type: functional, organism-based
# [35] = Binding affinity to 5' FAM/3' TAMRA labeled HRAS2 G-quadruplex DNA (unknown origin) assessed as change in melting temperature at 10 equiv of compound by FRET analysis (reference value: 67.2 degreeC)
# [36] = system: T-24; test: Binding affinity to mutant HRAS Mut-A plasmid (unknown origin) transfected in human T24 cells at 100 to 200 nM pretreated with cells followed by transfection measured after 48 hrs by dual luciferase reporter gene assay; type: cell-based
# [37] = system: T-24; test: Binding affinity to wild type HRAS G-quadruplex DNA (unknown origin) transfected in human T24 cells assessed as remaining expression ratio of firefly luciferase to renila luciferase reporter gene at 100 to 200 nM pretreated with cells followed by transfection measured after 48 hrs; type: cell-based
# [38] = Antitumor activity against human T24 cells xenografted in nude mouse assessed as increase in mouse median survival day at 1.7 mg/kg administered intratumorally on day 1, 8, 15, 22 relative to control; type: functional, T-24
ΔTm [2],Kd [4],ΔTm [7],Drug uptake [12],Drug uptake [14],Drug uptake [15],fold change (FC) [17],Drug uptake [21],Drug uptake [25],Kd [26],Structure (SMILES),Activity [6],IC50 [13],IC50 [19],Activity [22],Activity [24],also measured
7 °C,178 nM,9 °C,Not Active,Active,Active,2,Active,Active,168 nM,N=C(CCl)NCCCNc1c2c(c(NCCNC(=N)CCl)c3sccc13)C(=O)c1ccccc1C2=O,80%,12600 nM,3000 nM,81%,Active,Activity [1]: 66%; fold change (FC) [3]: 15; Activity [5]: 24%; Tm [8]: 75.8 °C; Activity [9]: inactive; Activity [10]: 40%; Activity [11]: 45%; Drug uptake [16]: Not Active; Activity [18]: 28.9%; Activity [20]: < 10%; Activity [23]: 83%; Tm [27]: 75.8 °C
7 °C,260 nM,9 °C,,Active,Active,2,Active,,276 nM,N=C(CCl)NCCCNc1c2c(c(NCCCNC(=N)CCl)c3sccc13)C(=O)c1ccccc1C2=O,,19400 nM,6800 nM,,,
7 °C,179 nM,9 °C,Not Active,Active,Active,2,Active,Active,221 nM,N=C(CCl)NCCCNc1c2c(c(NCCNC(=N)CCl)c3ccsc13)C(=O)c1ccccc1C2=O,,10100 nM,2900 nM,,,

# Second part, the compound before the results:
Structure (SMILES),ΔTm [2],Kd [4],ΔTm [7],Drug uptake [12],Drug uptake [14],Drug uptake [15],fold change (FC) [17],Drug uptake [21],Drug uptake [25],Kd [26],Activity [6],IC50 [13],IC50 [19],Activity [22],Activity [24],also measured
N=C(N)NCCNc1c2c(c(NCCNC(=N)N)c3sccc13)C(=O)c1ccccc1C2=O,,,,,,Active,,,,,inactive,> 30000 nM,4400 nM,13%,inactive,Activity [3]: inactive; inhibition [28]: inactive; Activity [29]: inactive; Activity [30]: Active
N=C(CCl)NCCCCNc1c2c(c(NCCCCNC(=N)CCl)c3sccc13)C(=O)c1ccccc1C2=O,7 °C,231 nM,9 °C,,Active,Active,2,Active,,215 nM,,> 30000 nM,11500 nM,,,
N=C(CCl)NCCNc1c2c(c(NCCNC(=N)CCl)c3sccc13)C(=O)c1ccccc1C2=O,7 °C,611 nM,9 °C,Not Active,Active,Active,2,Active,Active,317 nM,80%,6400 nM,2700 nM,88%,Active,Activity [1]: 72.2%; fold change (FC) [3]: 15; MSD [31]: 54 days; Activity [5]: 34%; Activity [32]: inactive; Tm [8]: 75.6 °C; Activity [9]: inactive; Activity [11]: 35%; Activity [33]: < 4%; Drug uptake [16]: Not Active; Activity [18]: 12.2%; Activity [20]: < 10%; TGI [34]: Active; Tm [35]: 78.5 °C; Activity [36]: inactive; Activity [37]: 40%; Activity [23]: 44.7%; Activity [38]: 70%; Tm [27]: 75.6 °C
N=C(N)NCCCCNc1c2c(c(NCCCCNC(=N)N)c3sccc13)C(=O)c1ccccc1C2=O,,,,,,Active,,,,,inactive,> 30000 nM,,13%,inactive,inhibition [28]: inactive; Activity [29]: inactive; Activity [30]: Active

# Source: ChEMBL document CHEMBL3585340, “Potent Apoptotic Response Induced by Chloroacetamidine Anthrathiophenediones in Bladder Cancer Cells” (J Med Chem, 2015)
